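The compound was tested at five concentrations on cells cultured in 96-well plates, with a 48-hour exposure period. TGI marks complete inhibition of growth.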
Key:
Assay in all cases: NCI anticancer screen, dose series, 48 h
[1] = tested on: UO-31 renal
[2] = tested on: OVCAR-8 ovarian
[3] = tested on: SK-MEL-28 melanoma
[4] = tested on: SN12C renal
[5] = tested on: BT-549 breast
[6] = tested on: CCRF-CEM leukemia
[7] = tested on: HS 578T breast
[8] = tested on: A498 renal
[9] = tested on: UACC-257 melanoma
[10] = tested on: NCI-H23 lung
[11] = tested on: MDA-MB-435
[12] = tested on: SK-MEL-2 melanoma
[13] = tested on: CAKI-1 renal
[14] = tested on: ACHN renal
[15] = tested on: SW-620 colon
[16] = tested on: 786-0 renal
[17] = tested on: HOP-62 NSCLC
[18] = tested on: HCC-2998 colon
[19] = tested on: M14 melanoma
[20] = tested on: OVCAR-4 ovarian
[21] = tested on: LOX IMVI melanoma
[22] = tested on: RXF 393 renal
[23] = tested on: TK-10 renal
[24] = tested on: SK-OV-3 ovarian
[25] = tested on: K-562 leukemia
[26] = tested on: SF-539 CNS
[27] = tested on: KM12 colon
[28] = tested on: HCT-15 colon
[29] = tested on: NCI-H460 lung
[30] = tested on: NCI/ADR-RES ovarian
[31] = tested on: MOLT-4 leukemia
[32] = tested on: SNB-75 CNS
[33] = tested on: HOP-92 NSCLC
[34] = tested on: OVCAR-5 ovarian
[35] = tested on: IGROV1 ovarian
[36] = tested on: UACC-62 melanoma
[37] = tested on: PC-3 prostate
[38] = tested on: EKVX NSCLC
[39] = tested on: A549 NSCLC
[40] = tested on: SF-268 CNS
[41] = tested on: U251 CNS
[42] = tested on: T-47D breast
[43] = tested on: SF-295 CNS
[44] = tested on: OVCAR-3 ovarian
[45] = tested on: DU-145 prostate
[46] = tested on: HT29 colon
[47] = tested on: SNB-19 CNS
[48] = tested on: HCT-116 colon
[49] = tested on: MCF7 breast
[50] = tested on: MDA-MB-231 breast

Structure (SMILES): CC(=O)O[C@H]1C(=O)[C@@]2(C)[C@H]([C@H](OC(=O)c3ccoc3)[C@]3(O)C[C@H](OC(=O)[C@H](O)[C@@H](NC(=O)c4ccccc4)c4ccccc4)C(C)=C1C3(C)C)[C@]1(OC(C)=O)CO[C@@H]1C[C@@H]2O
- TGI [1]: > 12.5 µM
- TGI [2]: > 12.5 µM
- TGI [3]: > 12.5 µM
- TGI [4]: > 12.5 µM
- TGI [5]: > 12.5 µM
- TGI [6]: > 2.88 µM
- TGI [7]: 0.612 µM
- TGI [8]: > 12.5 µM
- TGI [9]: > 12.5 µM
- TGI [10]: > 12.5 µM
- TGI [11]: 0.0236 µM
- TGI [12]: 0.696 µM
- TGI [13]: > 12.5 µM
- TGI [14]: > 12.5 µM
- TGI [15]: > 12.5 µM
- TGI [16]: > 12.5 µM
- TGI [17]: > 12.5 µM
- TGI [18]: 0.998 µM
- TGI [19]: > 12.5 µM
- TGI [20]: > 12.5 µM
- TGI [21]: > 12.5 µM
- TGI [22]: > 11.8 µM
- TGI [23]: > 12.5 µM
- TGI [24]: > 3.15 µM
- TGI [25]: 0.156 µM
- TGI [26]: 0.221 µM
- TGI [27]: > 12.5 µM
- TGI [28]: > 12.5 µM
- TGI [29]: > 3.73 µM
- TGI [30]: > 12.5 µM
- TGI [31]: > 11.6 µM
- TGI [32]: 2.38 µM
- TGI [33]: > 12.5 µM
- TGI [34]: > 12.5 µM
- TGI [35]: > 12.5 µM
- TGI [36]: > 12.5 µM
- TGI [37]: > 12.5 µM
- TGI [38]: > 12.5 µM
- TGI [39]: > 12.5 µM
- TGI [40]: > 12.5 µM
- TGI [41]: > 12.5 µM
- TGI [42]: > 12.5 µM
- TGI [43]: > 12.5 µM
- TGI [44]: 0.752 µM
- TGI [45]: > 12.5 µM
- TGI [46]: > 12.5 µM
- TGI [47]: > 12.5 µM
- TGI [48]: 0.366 µM
- TGI [49]: > 12.5 µM
- TGI [50]: > 12.5 µM
